According to ChEMBL document CHEMBL1201862, “PubChem BioAssay data set” (2004):
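Method: 48-hour compound exposure of cells in 96-well plates, five concentrations, linear interpolation of endpoints. GI50 is the concentration that inhibits growth by half.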 Active and inactive are the calls of the source. No stated cut-off is given here; in the data, active = GI50 up to about 1.1 µM and inactive = higher. Non-standard residues stand in square brackets, D forms with d. Residues, ends and D or L forms follow the SMILES beside them. *: point of attachment. Cbz = O=C(OCc1ccccc1)*; Boc = CC(C)(C)OC(=O)*; Aib = CC(C)(N)C(=O)O; OBn = c1ccc(CO*)cc1; OtBu = CC(C)(C)O*; βAla = NCCC(=O)O

Key:
Assay in all cases: NCI-60 cell line screen, 48 h
786-0 = tested on: 786-0
A498 = tested on: A498
A549 = tested on: A549
CCRF-CEM = tested on: CCRF-CEM
HL-60 = tested on: HL-60
HT-29 = tested on: HT-29
K562 = tested on: K562
MDA-MB-231 = tested on: MDA-MB-231
MOLT-4 = tested on: MOLT-4
OVCAR-4 = tested on: OVCAR-4
OVCAR-5 = tested on: OVCAR-5
SF-295 = tested on: SF-295
SF-539 = tested on: SF-539
SK-MEL-5 = tested on: SK-MEL-5
SNB-19 = tested on: SNB-19
SNB-75 = tested on: SNB-75
SR = tested on: SR
TK-10 = tested on: TK-10
UACC-62 = tested on: UACC-62
HCC 2998 = tested on: HCC 2998

Row | SMILES | GI50 (786-0) | GI50 (A498) | GI50 (A549) | GI50 (CCRF-CEM) | GI50 (HL-60) | GI50 (HT-29) | GI50 (K562) | GI50 (MDA-MB-231) | GI50 (MOLT-4) | GI50 (OVCAR-4) | GI50 (OVCAR-5) | GI50 (SF-295) | GI50 (SF-539) | GI50 (SK-MEL-5) | GI50 (SNB-19) | GI50 (SNB-75) | GI50 (SR) | GI50 (TK-10) | GI50 (UACC-62) | GI50 (HCC 2998)
1 | COc1ccc(C(=O)/C=C/c2cccnc2)cc1OC | 4.51 µM (inactive) | 14.6 µM (inactive) | 14.3 µM (inactive) | 3.51 µM (inactive) | 2.36 µM (inactive) | 4.1 µM (inactive) | 13.9 µM (inactive) | 11.1 µM (inactive) | 3.33 µM (inactive) | 12 µM (inactive) | 12.1 µM (inactive) | 13.4 µM (inactive) | 2.73 µM (inactive) | 14.1 µM (inactive) | 14.5 µM (inactive) | 11.8 µM (inactive) | 1.54 µM (inactive) | 15.7 µM (inactive) | 14 µM (inactive) | –
2 | Nc1ccc(C23CC4CC(C2)CC(c2ccc(N)cc2)(C4)C3)cc1 | 38.5 µM (inactive) | 15.7 µM (inactive) | > 100 µM (inactive) | 15.7 µM (inactive) | 31 µM (inactive) | – | 14.6 µM (inactive) | 1.96 µM (inactive) | 11.3 µM (inactive) | 10.2 µM (inactive) | 27.7 µM (inactive) | – | 16.4 µM (inactive) | 13.1 µM (inactive) | 37.8 µM (inactive) | – | 14.6 µM (inactive) | > 100 µM (inactive) | 29 µM (inactive) | 8.09 µM (inactive)
3 | COc1ccc(C(=O)N2CCN(c3ccc4c(c3)OCC(=O)N4)CC2)cc1OC | > 100 µM (inactive) | – | > 100 µM (inactive) | > 100 µM (inactive) | > 100 µM (inactive) | > 100 µM (inactive) | – | > 100 µM (inactive) | > 100 µM (inactive) | 38.1 µM (inactive) | 52 µM (inactive) | > 100 µM (inactive) | > 100 µM (inactive) | > 100 µM (inactive) | > 100 µM (inactive) | > 100 µM (inactive) | > 100 µM (inactive) | > 100 µM (inactive) | > 100 µM (inactive) | > 100 µM (inactive)
4 | CCOC(=O)N/N=C(/N)c1cccc(Br)c1 | > 100 µM (inactive) | – | > 100 µM (inactive) | > 100 µM (inactive) | > 100 µM (inactive) | > 100 µM (inactive) | > 100 µM (inactive) | > 100 µM (inactive) | > 100 µM (inactive) | > 100 µM (inactive) | > 100 µM (inactive) | > 100 µM (inactive) | > 100 µM (inactive) | > 100 µM (inactive) | 78.9 µM (inactive) | > 100 µM (inactive) | > 100 µM (inactive) | > 100 µM (inactive) | > 100 µM (inactive) | > 100 µM (inactive)
5 | COC1C(OC(=O)/C=C/C=C/C=C/C=C\C(=O)O)CCC2(CO2)C1C1(C)OC1CC=C(C)C (stereo not given) | > 100 µM (inactive) | > 100 µM (inactive) | > 100 µM (inactive) | > 100 µM (inactive) | – | > 100 µM (inactive) | > 56.5 µM (inactive) | > 100 µM (inactive) | > 100 µM (inactive) | > 100 µM (inactive) | > 100 µM (inactive) | > 100 µM (inactive) | > 100 µM (inactive) | > 100 µM (inactive) | > 100 µM (inactive) | > 100 µM (inactive) | > 100 µM (inactive) | > 100 µM (inactive) | > 100 µM (inactive) | > 100 µM (inactive)
6 | Cc1cc(-c2nc3ccccc3s2)ccc1NC(=O)[C@@H](N)CCCCN | 5.96 µM (inactive) | 3.83 µM (inactive) | 6.14 µM (inactive) | 6.92 µM (inactive) | – | 7.16 µM (inactive) | 7.01 µM (inactive) | 9.04 µM (inactive) | 6.58 µM (inactive) | 5.87 µM (inactive) | 12.5 µM (inactive) | 5.07 µM (inactive) | – | 13.9 µM (inactive) | 12 µM (inactive) | 3.68 µM (inactive) | 3.24 µM (inactive) | 0.993 µM (active) | 13.8 µM (inactive) | 6.31 µM (inactive)
7 | Cc1ccc2nc3ccccc3c(C3C4C(=O)N(c5ccc(F)cc5)C(=O)C4ON3C(C(N)=O)c3ccccc3)c2c1 (stereo not given) | 37.9 µM (inactive) | 41.1 µM (inactive) | 29.4 µM (inactive) | 38.5 µM (inactive) | 34.9 µM (inactive) | 26.1 µM (inactive) | 50.6 µM (inactive) | 39.8 µM (inactive) | 41.6 µM (inactive) | 41.1 µM (inactive) | 25.8 µM (inactive) | 28.8 µM (inactive) | 27.6 µM (inactive) | – | 57.8 µM (inactive) | 76.9 µM (inactive) | 40.9 µM (inactive) | 55.6 µM (inactive) | 20.6 µM (inactive) | –
8 | CC1=C(C)C2(C#N)C(=O)N3C(=NC(c4ccco4)NC3c3ccco3)C2(C#N)C(c2ccco2)N1 (stereo not given) | > 100 µM (inactive) | > 100 µM (inactive) | > 100 µM (inactive) | > 100 µM (inactive) | > 100 µM (inactive) | > 100 µM (inactive) | – | > 100 µM (inactive) | > 100 µM (inactive) | > 100 µM (inactive) | > 100 µM (inactive) | > 100 µM (inactive) | – | > 100 µM (inactive) | > 100 µM (inactive) | – | > 100 µM (inactive) | > 100 µM (inactive) | > 100 µM (inactive) | > 100 µM (inactive)
9 | COc1cc(-c2oc3c(OC)cc(OC)c(O)c3c(=O)c2OC)cc(OC)c1OC | 4.02 µM (inactive) | – | > 100 µM (inactive) | – | > 100 µM (inactive) | > 100 µM (inactive) | > 100 µM (inactive) | 2.84 µM (inactive) | > 100 µM (inactive) | 2.23 µM (inactive) | > 100 µM (inactive) | 2.59 µM (inactive) | 8.57 µM (inactive) | 20.7 µM (inactive) | 3.82 µM (inactive) | 1.73 µM (inactive) | > 100 µM (inactive) | > 100 µM (inactive) | 23.6 µM (inactive) | > 100 µM (inactive)
10 | O=C(O)c1oc(C(=O)O)c(C(=O)O)c1C(=O)O | > 100 µM (inactive) | > 100 µM (inactive) | > 100 µM (inactive) | > 100 µM (inactive) | > 100 µM (inactive) | > 100 µM (inactive) | > 100 µM (inactive) | > 100 µM (inactive) | > 100 µM (inactive) | > 100 µM (inactive) | > 100 µM (inactive) | > 100 µM (inactive) | – | > 100 µM (inactive) | > 100 µM (inactive) | – | > 100 µM (inactive) | > 100 µM (inactive) | > 100 µM (inactive) | –
11 | COc1cc(NCCC(=O)O)c2ncccc2c1 | > 100 µM (inactive) | > 100 µM (inactive) | > 100 µM (inactive) | > 100 µM (inactive) | > 100 µM (inactive) | > 100 µM (inactive) | > 100 µM (inactive) | > 100 µM (inactive) | > 100 µM (inactive) | > 100 µM (inactive) | > 100 µM (inactive) | > 100 µM (inactive) | – | > 100 µM (inactive) | > 100 µM (inactive) | – | > 100 µM (inactive) | > 100 µM (inactive) | > 100 µM (inactive) | –
12 | CC(C)(C)OC(=O)CC(NC(=O)OC(C)(C)C)C(=O)NC(CCCCNC(=O)OCc1ccccc1)C(=O)NC(C)(C)C(=O)NCCC(=O)OCc1ccccc1 (stereo not given) (Boc-D(OtBu)K(Cbz)[Aib][βAla]-OBn; configuration not given here) | > 100 µM (inactive) | 86.3 µM (inactive) | > 100 µM (inactive) | – | > 100 µM (inactive) | > 100 µM (inactive) | > 100 µM (inactive) | > 100 µM (inactive) | > 100 µM (inactive) | > 100 µM (inactive) | > 100 µM (inactive) | > 100 µM (inactive) | > 100 µM (inactive) | > 100 µM (inactive) | > 100 µM (inactive) | > 100 µM (inactive) | > 100 µM (inactive) | > 100 µM (inactive) | > 100 µM (inactive) | –
13 | CC1=NN(c2cccc(Cl)c2)C2(C1)C(Cl)C(=O)N2c1nc2ccccc2s1 (stereo not given) | 21.1 µM (inactive) | 35.9 µM (inactive) | 25.6 µM (inactive) | – | 23.3 µM (inactive) | 33.6 µM (inactive) | 16.2 µM (inactive) | 21.5 µM (inactive) | 14.5 µM (inactive) | 34.7 µM (inactive) | 44.4 µM (inactive) | 31.2 µM (inactive) | – | 19.4 µM (inactive) | 28.6 µM (inactive) | 21.6 µM (inactive) | 15.2 µM (inactive) | 90.2 µM (inactive) | 31.1 µM (inactive) | 55.1 µM (inactive)
14 | C[C@]12CC/C(=N\O)C=C1CC[C@@H]1[C@@H]2CC[C@]2(C)C(=N/O)/C(=C/c3ccc([N+](=O)[O-])cc3)C[C@@H]12 | 6.65 µM (inactive) | 13 µM (inactive) | 3.94 µM (inactive) | 2.5 µM (inactive) | 1.85 µM (inactive) | 4.94 µM (inactive) | 3.37 µM (inactive) | 6.64 µM (inactive) | 2.55 µM (inactive) | 4.73 µM (inactive) | – | 3.56 µM (inactive) | 10.4 µM (inactive) | 3.21 µM (inactive) | 7.5 µM (inactive) | 6 µM (inactive) | 2.79 µM (inactive) | 6.41 µM (inactive) | 3.52 µM (inactive) | –
15 | COc1cc(C)cc(C(=O)/C=C/c2ccccc2)c1O | 17.8 µM (inactive) | 18.3 µM (inactive) | 30.3 µM (inactive) | 27.7 µM (inactive) | 26.4 µM (inactive) | 18.3 µM (inactive) | 40.6 µM (inactive) | 22.5 µM (inactive) | 30.2 µM (inactive) | 20.2 µM (inactive) | 13.8 µM (inactive) | 20.9 µM (inactive) | – | 19.8 µM (inactive) | 16 µM (inactive) | 24.5 µM (inactive) | 30.9 µM (inactive) | 18.6 µM (inactive) | 17.1 µM (inactive) | 18.8 µM (inactive)
